From patent US20020082273A1, “Agents for use in the treatment of alzheimer's disease” (priority 1998, published 2002)
“And” between values parts separate entries of the source, which are not always exact repeats. Equal entries are not always repeated. “Also recorded” adds a separate entry of the source. Where two headings read alike, the source gives them in different places.

Legend:
[1] = system: Aβ1-40 or Aβ1-42 SDS-resistant polymers; test: Dissolution of in vitro Cu^2+-induced SDS-resistant Aβ polymers; format: biochemical, human; conditions: polymers generated at pH 7.4
[2] = Table 1; K=[ML]/[M][L]; cited from earlier work
[3] = Table 1; K=[ML]/[M][L]; cited from earlier work; remark: listed apart in the source
[4] = Table 1; K=[ML]/[M][L]; cited from earlier work; remark: listed apart in the source
[5] = Table 1; K=[ML]/[M][L]; cited from earlier work; remark: listed apart in the source
[6] = Table 1; K=[ML]/[M][L]; cited from earlier work; remark: listed apart in the source
[7] = Table 1; K=[ML]/[M][L]; cited from earlier work; remark: listed apart in the source
[8] = Table 1; K=[ML]/[M][L]; cited from earlier work; remark: listed apart in the source
Aβ1-40 aggregates = target: T1, Aβ1-40 aggregates (Homo sapiens, UniProt P05067); test: Resolubilization of in vitro metal- or pH-induced Aβ aggregates on filter; format: biochemical; conditions: chelator 2 μM in TBS
T1 construct: formed in vitro by the action of Cu^2+ or Zn^2+ upon Aβ1-40 was examined; purchased W. M. Keck Foundation Biotechnology Resource Laboratory (Yale University); host or cells: chemical synthesis
T1 sequence (P05067 672-711 limits assumed): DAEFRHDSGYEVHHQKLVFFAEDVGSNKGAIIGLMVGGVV
Procedure: Aggregates were transferred to a 0.2 μ nylon membrane by filtration. […] The membrane was fixed, probed with the anti-Aβ monoclonal antibody 6E10, and developed for exposure to ECL-film. […] Values are expressed as a percentage of Aβ signal after washing with TBS alone.
Aβ (10 ng/well in buffered saline) aggregation was induced by addition of metals (5 μM) or acidic conditions (pH 5.5). Aggregates were transferred to a 0.2 μ nylon membrane by filtration. […] The membrane was then fixed, probed with anti-Aβ monoclonal antibody 6E10 and developed for exposure to ECL-film. […] Values are expressed as a % of Aβ signal remaining on the filter after washing with TBS alone.

[9] = oral dose of 500 mg/kg, monkeys; cited from earlier work
[10] = oral dose of 200 mg/kg, dogs; cited from earlier work
[11] = Clioquinol in humans: expected plasma levels and side effect; format: in vivo
[12] = in vivo, cited from earlier work
[13] = sustained treatment, dose as low as 10 mg/kg/day; cited from earlier work
[14] = Dissolving clioquinol: n-decane / PBS partition; format: physicochemical
Procedure: Next, the phases were allowed to separate. The lower phase (PBS) was collected and filtered to remove the residue which had formed at the phase interface upon extraction with the organic solvent. The concentration of clioquinol in the PBS was determined to be 800 nanomolar. This number was arrived at based on two assumptions: […]

[15] = with PBS at 1:1 mixture; assumption; cited from earlier work
[16] = cited from earlier work
[17] = system: Aβ deposits of AD-affected brain; test: Extraction (solubilization) of Aβ from post-mortem AD brain tissue homogenates, western blot densitometry; format: biochemical, human
[18] = cited from earlier work; remark: listed apart in the source
[19] = oral dose of 200 mg/kg, rats; cited from earlier work
brain-derived Aβ = test: Effect of added metals on solubility of brain-derived Aβ; format: biochemical, human; conditions: 2 mM in PBS
Procedure: Aβ in the high speed supernatant was visualized as described above.
The homogenates were spun at 100,000× g for 30 min and the supernatant discarded. […] Aβ in the soluble fraction was visualized as described above.

## O=C(O)CN(CCN(CC(=O)O)CC(=O)O)CC(=O)O [EDTA, ethylenediaminetetra acetic acid]
[1]
  effect of chelators on amount of SDS-resistant polymers: less effective in destabilizing the polymers
[2]
  LogK, Fe: 14.3
[3]
  LogK, Mg: 8.9
[4]
  LogK, Zn: 16.5
[5]
  LogK, Co: 16.5
[6]
  LogK, Al: 16.5
[7]
  LogK, Cu: 18.8
[8]
  LogK, Ca: 10.7

## Oc1c(I)cc(Cl)c2cccnc12 [clioquinol, 5-chloro-7-iodo-8-hydroxyquinoline]
Aβ1-40 aggregates
  Cu^2+-induced Aβ precipitate resolubilized: 85%
  Zn^2+-induced Aβ precipitate resolubilized: 50%
  pH 5.5-induced Aβ precipitate resolubilized: 10%
[9]
  plasma levels: 20 to 70 µM
[10]
  plasma levels: 10 to 30 µM
[11]; 100 mg, three or four times a day
  peak plasma levels: about 0.1 μM
[11]; humans, within 30 minutes of ingesting 10 mg/kg body weight
  expected plasma level: 0.5 µM
[12]
  brain / blood-brain barrier penetration: freely permeable into the brain
[12]; listed as Clioquinol
  brain / blood-brain barrier penetration: crosses the blood brain barrier
[13]
  neurological side effect: subacute myclo-optic neuritis
[14]; 5.3 grams in 200 milliliter of n-decane
  proportion dissolved in n-decane: 2%
[14]; PBS, pH 7.4, based on two assumptions
  concentration in PBS after partition from n-decane: 0.8 µM
[15]
  partitioning coefficient: 1/1750
[16]; in vivo
  excretion half life: 1 to 3 h
[16]; oral ingestion
  time to peak plasma levels: ≤ 30 min
[17]
  % of total Aβ extracted: 1.85% and 4.5% and 3.4%
  % of total Aβ extracted, + PBS: 0.11% and 2.7% and 1.1%
  Aβ recovered in the soluble phase compared to PBS alone: doubling the recovery of Aβ; also recorded: more than twice
  increase in solubilization of Aβ relative to PBS alone: 2.5 fold
[18]; in vivo
  removal of a bolus dose from the brain: almost completely removed from the brain within three hours
[18]; many mammalian species, including rat and mouse
  safety: appears to be safe
[18]; within one hour of ingestion, rats and mice
  blood levels: 1 to 10 µM
[19]
  plasma levels: 5 µM

## [Mg] [magnesium]
brain-derived Aβ
  resolubilization of Aβ in tissue depleted of metals by EGTA: led to resolubilization of the precipitated Aβ
